Data as given in patent US11299473B2, “Benzimidazole and indole compounds and uses thereof” (Incyte Corporation, priority 2018, dated 2022).

biological target: active HPK1 (SignalChem M23-11G) (Homo sapiens (Human), UniProt Q92918); assay: HPK1 Kinase Binding Assay; conditions: LanthaScreen tracer 222 / Eu-Anti GST antibody, one hour incubation at 25° C.
Method: A stock solution of 1 mM test compound was prepared in DMSO. The compound plate was prepared by 3-fold and 11-point serial dilutions. 0.1 μL of the compound in DMSO was transferred from the compound plate to the white 384 well polystyrene plates. The assay buffer contained 50 mM HEPES, pH 7.5, 0.01% Tween-20, 5 mM MgCl2, 0.01% BSA, and 5 mM DTT. 5 μL of 4 nM active HPK1 (SignalChem M23-11G) prepared in the buffer was added to the plate. The enzyme concentration given was based on the given stock concentration reported by the vender. 5 μl of 18 nM tracer 222 (ThermoFisher PV6121) and 4 nM LanthaScreen Eu-Anti GST antibody (ThermoFisher PV5595) were added. After one hour incubation at 25° C., the plates were read on a PHERAstar FS plate reader (BMG Labtech). Ki values were determined.

active HPK1 (SignalChem M23-11G), sequence (Q92918 1-346 limits assumed): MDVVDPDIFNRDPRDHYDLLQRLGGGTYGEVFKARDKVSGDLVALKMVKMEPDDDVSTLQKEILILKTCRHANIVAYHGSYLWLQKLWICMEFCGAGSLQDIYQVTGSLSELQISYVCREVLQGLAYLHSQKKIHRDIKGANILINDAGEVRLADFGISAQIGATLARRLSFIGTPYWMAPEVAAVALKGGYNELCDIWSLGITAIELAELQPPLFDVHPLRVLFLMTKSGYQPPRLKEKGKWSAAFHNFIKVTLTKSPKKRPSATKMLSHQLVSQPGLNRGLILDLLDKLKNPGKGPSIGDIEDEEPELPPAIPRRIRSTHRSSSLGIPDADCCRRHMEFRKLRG

Ki, ≤ 0.1 µM:
Cc1cccc(F)c1-c1nccc(C(=O)Nc2ccc3c(nc(C)n3C)c2N2CCC[C@H]2CN)n1 [Example 33, (S)—N-(4-(2-(Aminomethyl)pyrrolidin-1-yl)-1,2-dimethyl-1H-benzo[d]imidazol-5-yl)-2-(2-fluoro-6-methylphenyl)pyrimidine-4-carboxamide]
COc1cccc(F)c1-c1nccc(C(=O)Nc2ccc3c(ccn3Cc3ccncc3)c2N2C[C@@H]3C[C@H]2CN3)n1 [Example 39, N-(4-((1S,4S)-2,5-Diazabicyclo[2.2.1]heptan-2-yl)-1-(pyridin-4-ylmethyl)-1H-indol-5-yl)-2-(2-fluoro-6-methoxyphenyl)pyrimidine-4-carboxamide]
COc1cccc(F)c1-c1nccc(C(=O)Nc2ccc3c(ncn3[C@@H]3CCOC3)c2N2CCC[C@H]2CN)n1 [Example 27, N-(4-((S)-2-(Aminomethyl)pyrrolidin-1-yl)-1-((R)-tetrahydrofuran-3-yl)-1H-benzo[d]imidazol-5-yl)-2-(2-fluoro-6-methoxyphenyl)pyrimidine-4-carboxamide]
COc1cccc(F)c1-c1nccc(C(=O)Nc2ccc3c(nc(C)n3CC(C)(C)OC)c2N2CCC[C@H]2CN)n1 [Example 23, (S)—N-(4-(2-(Aminomethyl)pyrrolidin-1-yl)-1-(2-methoxy-2-methylpropyl)-2-methyl-1H-benzo[d]imidazol-5-yl)-2-(2-fluoro-6-methoxyphenyl)pyrimidine-4-carboxamide]
COc1cccc(F)c1-c1nccc(C(=O)Nc2ccc3c(nc(C)n3C)c2N2C[C@H](N)C[C@H]2CO)n1 [Example 15, N-(4-((2S,4R)-4-Amino-2-(hydroxymethyl)pyrrolidin-1-yl)-1,2-dimethyl-1H-benzo[d]imidazol-5-yl)-2-(2-fluoro-6-methoxyphenyl)pyrimidine-4-carboxamide]
COc1cccc(F)c1-c1nccc(C(=O)Nc2ccc3c(ccn3CCN3CCOCC3)c2N2C[C@@H]3C[C@H]2CN3)n1 [Example 43, N-(4-((1S,4S)-2,5-Diazabicyclo[2.2.1]heptan-2-yl)-1-(2-morpholinoethyl)-1H-indol-5-yl)-2-(2-fluoro-6-methoxyphenyl)pyrimidine-4-carboxamide]
COc1cccc(F)c1-c1nccc(C(=O)Nc2ccc3c(ccn3C)c2N2C[C@@H]3C[C@H]2CN3)n1 [Example 38, N-(4-((1S,4S)-2,5-Diazabicyclo[2.2.1]heptan-2-yl)-1-methyl-1H-indol-5-yl)-2-(2-fluoro-6-methoxyphenyl)pyrimidine-4-carboxamide]
COc1cccc(F)c1-c1nccc(C(=O)Nc2ccc3c(ccn3C)c2N2CCC[C@@H]2CN)n1 [Example 35, (R)—N-(4-(2-(Aminomethyl)pyrrolidin-1-yl)-1-methyl-1H-indol-5-yl)-2-(2-fluoro-6-methoxyphenyl)pyrimidine-4-carboxamide]
COc1cccc(F)c1-c1nccc(C(=O)Nc2ccc3c(nc(-c4ccncc4F)n3C)c2N2C[C@@H]3C[C@H]2CO3)n1 [Example 11, N-(4-((1S,4S)-2-Oxa-5-azabicyclo[2.2.1]heptan-5-yl)-2-(3-fluoropyridin-4-yl)-1-methyl-1H-benzo[d]imidazol-5-yl)-2-(2-fluoro-6-methoxyphenyl)pyrimidine-4-carboxamide]
Cn1c(-c2ccncc2F)nc2c(N3C[C@H](N)C[C@H]3CO)c(NC(=O)c3ccnc(-c4c(F)cccc4F)n3)ccc21 [Example 7, N-(4-((2S,4R)-4-Amino-2-(hydroxymethyl)pyrrolidin-1-yl)-2-(3-fluoropyridin-4-yl)-1-methyl-1H-benzo[d]imidazol-5-yl)-2-(2,6-difluorophenyl)pyrimidine-4-carboxamide]
COc1cccc(F)c1-c1nccc(C(=O)Nc2ccc3c(nc(-c4ccnn4C)n3C)c2N2CCC[C@H]2CN)n1 [Example 19, (S)—N-(4-(2-(Aminomethyl)pyrrolidin-1-yl)-1-methyl-2-(1-methyl-1H-pyrazol-5-yl)-1H-benzo[d]imidazol-5-yl)-2-(2-fluoro-6-methoxyphenyl)pyrimidine-4-carboxamide]
COc1cccc(F)c1-c1nccc(C(=O)Nc2ccc3c(nc(C)n3C)c2N2C[C@H]3C[C@@H]2CN3)n1 [Example 16, N-(4-((1R,4R)-2,5-Diazabicyclo[2.2.1]heptan-2-yl)-1,2-dimethyl-1H-benzo[d]imidazol-5-yl)-2-(2-fluoro-6-methoxyphenyl)pyrimidine-4-carboxamide]
COc1cccc(F)c1-c1nccc(C(=O)Nc2ccc3c(nc(C)n3C)c2N2CCC[C@@H]2CO)n1 [Example 14, (R)-2-(2-Fluoro-6-methoxyphenyl)-N-(4-(2-(hydroxymethyl)pyrrolidin-1-yl)-1,2-dimethyl-1H-benzo[d]imidazol-5-yl)pyrimidine-4-carboxamide]
COc1cccc(F)c1-c1nccc(C(=O)Nc2ccc3c(nc(-c4ccncc4F)n3C)c2N2C[C@@H]3C[C@H]2CN3)n1 [Example 10, N-(4-((1S,4S)-2,5-Diazabicyclo[2.2.1]heptan-2-yl)-2-(3-fluoropyridin-4-yl)-1-methyl-1H-benzo[d]imidazol-5-yl)-2-(2-fluoro-6-methoxyphenyl)pyrimidine-4-carboxamide]
Cn1c(-c2ccncc2F)nc2c(N3CCNC[C@@H]3CO)c(NC(=O)c3ccnc(-c4c(F)cccc4F)n3)ccc21 [Example 9, (R)-2-(2,6-Difluorophenyl)-N-(2-(3-fluoropyridin-4-yl)-4-(2-(hydroxymethyl)piperazin-1-yl)-1-methyl-1H-benzo[d]imidazol-5-yl)pyrimidine-4-carboxamide]
COc1cccc(F)c1-c1nccc(C(=O)Nc2ccc3c(nc(-c4ncccc4F)n3C)c2N2C[C@H](N)C[C@H]2CO)n1 [Example 1, N-(4-((2S,4R)-4-Amino-2-(hydroxymethyl)pyrrolidin-1-yl)-2-(3-fluoropyridin-2-yl)-1-methyl-1H-benzo[d]imidazol-5-yl)-2-(2-fluoro-6-methoxyphenyl)pyrimidine-4-carboxamide]
COc1cccc(F)c1-c1nccc(C(=O)Nc2ccc3c(nc(C)n3[C@H]3CCOC3)c2N2CCC[C@H]2CN)n1 [Example 24, N-(4-((S)-2-(Aminomethyl)pyrrolidin-1-yl)-2-methyl-1-((S)-tetrahydrofuran-3-yl)-1H-benzo[d]imidazol-5-yl)-2-(2-fluoro-6-methoxyphenyl)pyrimidine-4-carboxamide]
COc1cccc(F)c1-c1nccc(C(=O)Nc2ccc3c(nc(C)n3C)c2-c2ccccc2N)n1 [Example 31, N-(4-(2-Aminophenyl)-1,2-dimethyl-1H-benzo[d]imidazol-5-yl)-2-(2-fluoro-6-methoxyphenyl)pyrimidine-4-carboxamide]
COc1cccc(F)c1-c1nccc(C(=O)Nc2ccc3[nH]ccc3c2N2C[C@@H]3C[C@H]2CN3)n1 [Example 40, N-(4-((1S,4S)-2,5-Diazabicyclo[2.2.1]heptan-2-yl)-1H-indol-5-yl)-2-(2-fluoro-6-methoxyphenyl)pyrimidine-4-carboxamide]
COCCn1c(C)nc2c(N3CCC[C@H]3CN)c(NC(=O)c3ccnc(-c4c(F)cccc4OC)n3)ccc21 [Example 21, (S)—N-(4-(2-(Aminomethyl)pyrrolidin-1-yl)-1-(2-methoxyethyl)-2-methyl-1H-benzo[d]imidazol-5-yl)-2-(2-fluoro-6-methoxyphenyl)pyrimidine-4-carboxamide]
COc1cccc(F)c1-c1nccc(C(=O)Nc2ccc3c(ccn3C)c2N2C[C@@H](N)C[C@H]2CO)n1 [Example 36, N-(4-((2S,4S)-4-Amino-2-(hydroxymethyl)pyrrolidin-1-yl)-1-methyl-1H-indol-5-yl)-2-(2-fluoro-6-methoxyphenyl)pyrimidine-4-carboxamide]
Cn1c(-c2ccccc2C#N)nc2c(N3C[C@H](N)C[C@H]3CO)c(NC(=O)c3ccnc(-c4c(F)cccc4F)n3)ccc21 [Example 4, N-(4-((2S,4R)-4-Amino-2-(hydroxymethyl)pyrrolidin-1-yl)-2-(2-cyanophenyl)-1-methyl-1H-benzo[d]imidazol-5-yl)-2-(2,6-difluorophenyl)pyrimidine-4-carboxamide]
COc1cc(-n2ccc3c(N4C[C@@H]5C[C@H]4CN5)c(NC(=O)c4ccnc(-c5c(F)cccc5OC)n4)ccc32)ccn1 [Example 44, N-(4-((1S,4S)-2,5-Diazabicyclo[2.2.1]heptan-2-yl)-1-(2-methoxypyridin-4-yl)-1H-indol-5-yl)-2-(2-fluoro-6-methoxyphenyl)pyrimidine-4-carboxamide]
COc1cccc(F)c1-c1nccc(C(=O)Nc2ccc3c(nc(C)n3Cc3cnn(C)c3)c2N2CC[C@H](N)C2)n1 [Example 30, (S)—N-(4-(3-Aminopyrrolidin-1-yl)-2-methyl-1-((1-methyl-1H-pyrazol-4-yl)methyl)-1H-benzo[d]imidazol-5-yl)-2-(2-fluoro-6-methoxyphenyl)pyrimidine-4-carboxamide]
Cn1c(-c2ncccc2F)nc2c(N3C[C@H](N)C[C@H]3CO)c(NC(=O)c3ccnc(-c4c(F)cccc4F)n3)ccc21 [Example 2, N-(4-((2S,4R)-4-Amino-2-(hydroxymethyl)pyrrolidin-1-yl)-2-(3-fluoropyridin-2-yl)-1-methyl-1H-benzo[d]imidazol-5-yl)-2-(2,6-difluorophenyl)pyrimidine-4-carboxamide]
